Reference: PMC6136360, “Novel group of tyrosyl-DNA-phosphodiesterase 1 inhibitors based on disaccharide nucleosides as drug prototypes for anti-cancer therapy” (Journal of Enzyme Inhibition and Medicinal Chemistry, 2018)

How the values were obtained:
[1] = target: T1, TDP1 (Homo sapiens, UniProt Q9NUW8); experiment: Real-time fluorescence detection of TDP1 activity, single-stranded FAM/BHQ biosensor; type: biochemical; conditions: for Inhibitory effect on TDP1 activity (in words): single-stranded fluorescent biosensor, primary screening
T1 construct: made in house; host or cells: E. coli
Experimental: (§1) Conditions and details for our real-time detection of TDP1 activity using the single-stranded and hairpin fluorescent biosensors were reported in our previous work[47]. Briefly, the approach consists in fluorescence intensity measurement of the reaction of quencher removal from the fluorophore-quencher coupled DNA-oligonucleotide catalysed by TDP1 in the presence of inhibitor and in the absence of it (the control samples contained 1% DMSO). Reaction mixtures (200 µl) contained TDP1 buffer (50 mM Tris-HCl, pH 8.0, 50 mM NaCl, 7 mM β-mercaptoethanol), oligonucleotide (50 nM substrate of TDP1), testable inhibitor and purified TDP1 (1.5 nM). The reactions were incubated at a constant temperature of 26 °C in a POLARstar OPTIMA fluorimeter, BMG LABTECH, GmbH, to measure fluorescence every 55 s (Ex485/Em520 nm) during the linear phase (here data from 0 to 8 min). The average values of half maximal inhibitory concentration (IC50) were determined using an eleven-point concentration response curve in three independent experiments and calculated using MARS Data Analysis 2.0 (BMG LABTECH).
To discover inhibitors of TDP1 we recently developed original single-stranded and hairpin fluorophore–quencher coupled DNA-biosensors for real-time measurement of TDP1 cleavage activity. The single-stranded substrate is a 16-mer oligonucleotide containing both 5′-FAM fluorophore donor and a quenching 3′-BHQ moiety (Figure 1(A)). When the quencher is removed by TDP1, the fluorescence intensity increases and can be measured by fluorimeter (TDP1 catalysed reaction on biosensor is shown in Figure 3(A). Fluorescence intensity declines in the presence of inhibitor, the resulting curves of the dependence of TDP1 residual activity as a function of the concentration of inhibitors were obtained using 4-parameter logistic regression fit, which was used to calculate IC50 values[47]^,[58].
For primary screening, the effect of a large group of disaccharide nucleosides and their hydrophobic derivatives on human recombinant TDP1 activity has been evaluated by fluorescent method on a single-stranded substrate described above.

[2] = test system: PARP1; set-up: method as in PMID 24079274; conditions: cited from earlier work
[3] = target: T1, TDP1; experiment: Steady-state kinetic analysis of TDP1 reaction, single-stranded substrate; type: biochemical; conditions: for Ki: Cornish-Bowden method, read-out: Inhibition constant, KI
Experimental: (§2) To determine the kinetic parameters: apparent maximum rate of enzymatic reaction (Vmax), Michaelis constant (KM), constant of inhibition (KI), and possible inhibition mechanism, steady-state kinetic experiments were carried out at five fixed concentrations of substrate with variation of inhibitor concentrations. The standard reaction mixtures (200 μl) contained 50 nM, 100 nM, 200 nM, 500 nM or 1000 nM substrate, testable inhibitor, 1.5 nM recombinant human TDP1 and reaction buffer components (50 mM Tris-HCl, pH 8.0, 50 mM NaCl, 7 mM β-mercaptoethanol). After addition of the enzyme, the reaction mixtures were incubated at a constant temperature of 26 °C and measured in a POLARstar OPTIMA fluorimeter, BMG LABTECH, GmbH, to measure fluorescence every 55 s (Ex485/Em520 nm) during the linear phase (data from 0 to 8 min). The initial data (kinetic curves) were obtained in three independent experiments and statistically processed in software OriginPro 8.6.0.
Vmax and KM decrease proportionally (Figure 6(A,B)), which corresponds to the uncompetitive type of inhibition, according to the general equation of the rate of product formation in the Michaelis–Menten kinetics.
(§3) Values of the inhibition constant (KI) were determined using Cornish–Bowden method. Similar experiments were performed for all seven tested inhibitors on two types of DNA substrates, and the results are shown in Table 4.

[4] = target: T1, TDP1; experiment: Steady-state kinetic analysis of TDP1 reaction, double-stranded (hairpin) substrate; type: biochemical; conditions: for Ki: Cornish-Bowden method, read-out: Inhibition constant, KI
Experimental: as §2, §3

[5] = target: T2, SCAN1 (mutant form of TDP1 with H493R substitution) (Homo sapiens, UniProt Q9NUW8, H493R); experiment: Fluorescence real-time assay on mutant TDP1 (SCAN1), single-stranded oligonucleotide; type: biochemical
T2 construct: made in house; host or cells: E. coli
Description: The recombinant tyrosyl-DNA phosphodiesterase 1 and the mutant form of TDP1 with substitution (H493R) were expressed in the E. coli system (plasmids pET16B-TDP1 and pET16B-SCAN1 were provided by Dr. K.W. Caldecott, University of Sussex, United Kingdom and by Dr. S. El-Khamisy, University of Sheffield, United Kingdom) and purified according to the previously described technique.
as §1
The IC50 values obtained by the fluorescence real-time assay on a single-stranded oligonucleotide (section 3.1) were higher than 100 μM.

[6] = test system: A-549 cell line (adenocarcinomic human alveolar basal epithelial cells); experiment: MTT test, cytotoxicity and combination with topotecan, A-549; type: cell-based; conditions: A-549 cells; for Synergistic coefficient (SC) with topotecan: MTT, inhibitor in combination with topotecan, SC < 1 indicates synergy; for Effect on cytotoxic effect of topotecan (in words): non-toxic inhibitor concentrations
Experimental: (§4) Tumour cell line A549 (adenocarcinomic human alveolar basal epithelial cells) and noncancerous cell line WI-38 (fibroblasts derived from lung tissue of a 3 months gestation […] fetus) were used in cell-based experiments to determine the cytotoxicity of inhibitors and their effect on antitumour drug topotecan using standard MTT test[48]. Cells were incubated in Iscove’s Modified Dulbecco’s Medium (IMDM) supplemented with 10% fetal bovine serum and 40 µg/ml gentamicin, 10 U/ml penicillin, […], 0.25 µg/ml amphotericin at 37 °C and 5% CO2 for 24 h in a CO2 incubator; the optical density of the final solution was measured in the wells of the microplate at 570 nm and 620 nm wavelengths using a MultiScan FC (Thermo Scientific) microplate reader.
(§5) To study the effect of inhibitors on the cytotoxic effect of a well-known antitumour drug, the topotecan of the manufacturer “ACTAVIS GROUP PTC ehf.” was used. First of all, the 50% cytotoxic concentration (CC50) for topotecan and each inhibitor were determined to produce a defined single-agent effect. Second, three independent MTT-tests were performed with each inhibitor in combination with topotecan. Then, the synergistic coefficient (SC) was calculated according to the following formula (2)[49]: (2) SC= CC50 tpc,(+I)/CC50 tpc+CC50 I, (+tpc)/CC50 I,
(§6) CC50 tpc,(+I) and CC50 I,(+tpc) are the concentrations of topotecan and inhibitor used in combination to achieve 50% drug effect. CC50 tpc and CC50 I are the concentrations for single agents to achieve the same effect. SC values of less than, equal to, or more than 1 indicates synergy, additivity, and antagonism, respectively. The results were calculated and statistically processed in Microsoft Excel.

[7] = test system: WI-38 cell line (noncancerous fibroblasts derived from lung tissue); experiment: MTT test, cytotoxicity and combination with topotecan, WI-38; type: cell-based, human; conditions: WI-38 non-cancerous cell line
Experimental: as §4, §5, §6

[8] = target: T1, TDP1; experiment: Fluorescence anisotropy assay of TDP1-DNA substrate complex; type: binding; conditions: 3 nM single-strand oligonucleotide without quencher, 50 nM TDP1
Experimental: Fluorescence anisotropy was measured by using a fluorescent single-strand DNA-oligonucleotide (3 nM) without quencher at the 3′-end in the presence of the inhibitor in different concentrations (Fluorescein control, CFlu = 10^−9 M). Reaction mixtures (200 µl) contained TDP1 buffer (50 mM Tris-HCl, pH 8.0, 50 mM NaCl, 7 mM β-mercaptoethanol), a single-strand DNA-oligonucleotide without quencher (3 nM substrate of TDP1), a testable inhibitor and the purified TDP1 (50 nM). The reactions were incubated at a constant temperature of 26 °C in a POLARstar OPTIMA fluorimeter, BMG LABTECH, GmbH, to measure fluorescence anisotropy every 55 s (Ex482/Em530 nm) during the linear phase (from 0 to 8 min) in two independent experiments.
Fluorescence anisotropy (r) was calculated by using the Equation (1): (1) r = (III–I⊥)/(III+ 2I⊥)
The dependence of the anisotropy on the concentration of the inhibitor was determined using a six-point response curve in two independent experiments and calculated using MARS Data Analysis 2.0 (BMG LABTECH).
To obtain some information about interaction of disaccharide nucleosides with TDP1, anisotropy of the fluorescent DNA substrate was measured. We used single-stranded oligonucleotide without a quencher at the 3′-end in the presence of testable inhibitors at different concentrations.

T1 sequence (Q9NUW8 whole entry): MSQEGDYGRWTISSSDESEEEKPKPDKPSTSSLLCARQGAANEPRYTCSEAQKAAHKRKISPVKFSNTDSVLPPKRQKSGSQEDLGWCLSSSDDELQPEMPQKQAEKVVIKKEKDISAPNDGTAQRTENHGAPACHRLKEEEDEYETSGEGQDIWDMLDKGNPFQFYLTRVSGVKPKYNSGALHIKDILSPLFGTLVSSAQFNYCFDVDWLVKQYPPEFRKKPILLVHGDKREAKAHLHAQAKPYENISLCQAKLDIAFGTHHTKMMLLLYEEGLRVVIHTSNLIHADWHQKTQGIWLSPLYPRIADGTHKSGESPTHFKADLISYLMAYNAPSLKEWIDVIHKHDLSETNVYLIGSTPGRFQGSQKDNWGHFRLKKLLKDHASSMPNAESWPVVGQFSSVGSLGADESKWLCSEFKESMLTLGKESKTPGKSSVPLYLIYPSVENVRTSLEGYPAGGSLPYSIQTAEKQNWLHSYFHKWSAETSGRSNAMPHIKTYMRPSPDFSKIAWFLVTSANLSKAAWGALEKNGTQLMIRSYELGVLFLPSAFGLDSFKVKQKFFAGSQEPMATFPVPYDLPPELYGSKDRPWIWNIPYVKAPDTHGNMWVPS
T2 sequence (Q9NUW8 whole entry H493R): as the sequence (Q9NUW8 whole entry) above, with H493R counted along it

Type of inhibition [3]	Ki [3]	Type of inhibition [4]	Ki [4]	IC50 [5]	Change of fluorescence anisotropy with inhibitor concentration [8]	IC50 ([1]; single-stranded fluorescent biosensor 50 nM, TDP1 1.5 nM, 26 °C, read-out: IC50 (half-maximal inhibitory concentration) of TDP1 activity)	Structure (SMILES)	Inhibitory effect on TDP1 activity (in words) [1]	IC50 [2]	Synergistic coefficient (SC) with topotecan [6]	Effect on cytotoxic effect of topotecan (in words) [6]	Synergy with topotecan (in words) [7]
							Cc1cn([C@H]2C[C@H](O[C@@H](C=O)O[C@@H](C=O)CO)[C@@H](CO)O2)c(=O)[nH]c1=O [Compound 29]	did not lead to the noticeable inhibitory activity	25 ± 3 µM			
Mixed	1.7 ± 0.4 µM	Mixed	3.1 ± 0.3 µM	> 100 µM	significant decrease in the anisotropy		CC(C)C(=O)Nc1nc2c(ncn2[C@@H]2O[C@H](CO)[C@@H](O)[C@H]2O[C@@H]2O[C@H](COC(=O)c3ccccc3)[C@@H](OC(=O)c3ccccc3)[C@H]2OC(=O)c2ccccc2)c(=O)[nH]1 [Compound 10]			less than or equal to 0.7	significant increase of cytotoxic effect of topotecan	demonstrated synergy with topotecan
							Cc1cn([C@H]2C[C@H](O[C@@H]3O[C@H](CO)[C@@H](O)[C@H]3O)[C@@H](CO)O2)c(=O)[nH]c1=O [Compound 24]	not inhibited	38 ± 4 µM			
Uncompetitive	0.6 ± 0.3 µM	Uncompetitive	2.1 ± 0.5 µM	> 100 µM	anisotropy remained unchanged	2.8 ± 0.2 µM	O=C(OC[C@H]1O[C@@H](O[C@H]2C[C@H](n3cc(I)c(=O)[nH]c3=O)O[C@@H]2CO)[C@H](OC(=O)c2ccccc2)[C@@H]1OC(=O)c1ccccc1)c1ccccc1 [Compound 41]			less than or equal to 0.7	significant increase of cytotoxic effect of topotecan	demonstrated synergy with topotecan
